Source: patent US20260201438A1 (priority 2022, published 2026)
In brackets after ≈: the same amount, converted by molar mass.

Assays:
E. coli ATCC 25922 [1] = test: reference broth microdilution (rBMD); format: cell-based; conditions: Escherichia coli, ATCC25922, read-out: MIC rBMD, E. coli ATCC 25922, isolates from urine cultures; geometric mean, n = 3
S. aureus ATCC 29213 = conditions: CLSI M100-Ed35; cited from earlier work
E. coli ATCC 25922 [2] = conditions: CLSI M100-Ed35; cited from earlier work

Row | Compound | MIC (E. coli ATCC 25922 [1]) | MIC CLSI QC Range (S. aureus ATCC 29213) | MIC CLSI QC Range (E. coli ATCC 25922 [2])
1 | Cc1nnc(SCC2=C(C(=O)O)N3C(=O)[C@@H](NC(=O)Cn4cnnn4)[C@H]3SC2)s1 [Cefazolin] | 2 µg/mL (≈ 4.4 µM) | – | –
2 | CO[C@@]1(NC(=O)Cc2cccs2)C(=O)N2C(C(=O)O)=C(COC(N)=O)CS[C@@H]21 [Cefoxitin] | – | 1.0 to 4.0 µg/mL | –
3 | CO/N=C(\C(=O)N[C@@H]1C(=O)N2C(C(=O)O)=C(CSc3nc(=O)c(=O)[nH]n3C)CS[C@H]12)c1csc(N)n1 [Ceftriaxone] | – | 1.0 to 8.0 µg/mL | 0.03 to 0.12 µg/mL
4 | CO/N=C(\C(=O)N[C@@H]1C(=O)N2C(C(=O)O)=C(COC(N)=O)CS[C@H]12)c1ccco1 [Cefuroxime] | – | – | 2.0 to 8.0 µg/mL
5 | C[C@@H](O)[C@H]1C(=O)N2C(C(=O)O)=C(S[C@@H]3CN[C@H](C(=O)N(C)C)C3)[C@H](C)[C@H]12 [Meropenem] | – | 0.03 to 0.12 µg/mL | 0.008 to 0.06 µg/mL
